# Results as given in US20160016916A1, “Exo Olefin-Containing Nuclear Transport Modulators and Uses Thereof” (KARYOPHARM THERAPEUTICS INC., priority 2013, published 2016).
# Assays:
# MM1.S cells = assay: CellTiter 96 AQueous One Solution cell proliferation assay (MTS); format: cell-based; details: Homo sapiens, 72 h of treatment, MTS absorbance at 490 nm
# Text: The CellTiter 96® AQueous One Solution cell proliferation assay (Promega) was used on MM1.S cells to study the cytotoxic and cytostatic properties of the compounds. The assay is based on the cleavage of the tetrazolium salt, MTS, in the presence of an electron-coupling reagent PES (phenazine ethosulfate). The MTS tetrazolium compound is bioreduced by cells into a colored formazan product that is soluble in tissue culture medium. This conversion is presumably accomplished by NADPH or NADH produced by dehydrogenase enzymes in metabolically active cells. Assays are performed by adding a small amount of the CellTiter 96® AQueous One solution reagent directly to culture wells, incubating for 1-4 hours and then recording the absorbance at 490 nm with a 96-well plate reader.
# The cells were seeded at 5×10^3 to 1.5×10^4 cells (depending on cell type) in each well of 96-well plate in 100 μL of fresh culture medium and adherent cells were allowed to attach for overnight. The stock solutions of the compounds were diluted in cell culture medium to obtain eight concentrations of each drug, ranging from 1 nM to 30 μM and DMSO at less than 1% v/v was used as a negative control. After 72 h of treatment, 20 μL of CellTiter 96® AQueous reagent was added into each well of the 96-well assay plates and the plate was incubate at 37° C. for 1-4 hours in a humidified, 5% CO2 atmosphere. Then the absorbance of each well was recorded at 490 nm by using a 96-well plate reader. In most cases, the assay was performed in triplicates and the results were presented as half maximal inhibitory concentration (IC50). Optical density versus compound concentration was plotted and analyzed using non linear regression equations (Excel Fit) and the IC50 for each compound was calculated.
# CRM1 = molecular target: T1, CRM1 (Homo sapiens, UniProt O14980); assay: CRM1-mediated nuclear export assay (GFP nuclear localization in HeLa cells); format: cell-based; details: HeLa cells expressing NLS-GFP-NES(PKI), 3 hours, concentration at which approximately 50% of the cells showed nuclear GFP
# T1 construct: HeLa cells expressing GFP that was N-terminally fused to a nuclear localization and C-terminally fused to the nuclear export signal of PKI; endogenous in cells; host or cells: HeLa cells expressing an NLS-GFP-NES(PKI) reporter
# Description: HeLa cells expressing GFP that was N-terminally fused to a nuclear localization and C-terminally fused to the nuclear export signal of PKI were treated with different concentrations of test compounds for 3 hours and then scored for nuclear localization of GFP.
# HeLa cells were cultured in Dulbecco's modified Eagle's medium (DMEM) supplemented with 10% (vol/vol) heat-inactivated fetal calf serum, 2 mM L-glutamine 0.1% sodium bicarbonate, and 20 μg/ml gentamicin. The cells were plated in 96-well plates at 0.02×10^6 cells/well and incubated overnight. The next day, compound was added to the cells and incubated for another 3 hours. After 3 hours, GFP subcellular localization was monitored using a Leica DMI6000 microscope.
# T1 sequence (O14980 whole entry, the tested form may be a part): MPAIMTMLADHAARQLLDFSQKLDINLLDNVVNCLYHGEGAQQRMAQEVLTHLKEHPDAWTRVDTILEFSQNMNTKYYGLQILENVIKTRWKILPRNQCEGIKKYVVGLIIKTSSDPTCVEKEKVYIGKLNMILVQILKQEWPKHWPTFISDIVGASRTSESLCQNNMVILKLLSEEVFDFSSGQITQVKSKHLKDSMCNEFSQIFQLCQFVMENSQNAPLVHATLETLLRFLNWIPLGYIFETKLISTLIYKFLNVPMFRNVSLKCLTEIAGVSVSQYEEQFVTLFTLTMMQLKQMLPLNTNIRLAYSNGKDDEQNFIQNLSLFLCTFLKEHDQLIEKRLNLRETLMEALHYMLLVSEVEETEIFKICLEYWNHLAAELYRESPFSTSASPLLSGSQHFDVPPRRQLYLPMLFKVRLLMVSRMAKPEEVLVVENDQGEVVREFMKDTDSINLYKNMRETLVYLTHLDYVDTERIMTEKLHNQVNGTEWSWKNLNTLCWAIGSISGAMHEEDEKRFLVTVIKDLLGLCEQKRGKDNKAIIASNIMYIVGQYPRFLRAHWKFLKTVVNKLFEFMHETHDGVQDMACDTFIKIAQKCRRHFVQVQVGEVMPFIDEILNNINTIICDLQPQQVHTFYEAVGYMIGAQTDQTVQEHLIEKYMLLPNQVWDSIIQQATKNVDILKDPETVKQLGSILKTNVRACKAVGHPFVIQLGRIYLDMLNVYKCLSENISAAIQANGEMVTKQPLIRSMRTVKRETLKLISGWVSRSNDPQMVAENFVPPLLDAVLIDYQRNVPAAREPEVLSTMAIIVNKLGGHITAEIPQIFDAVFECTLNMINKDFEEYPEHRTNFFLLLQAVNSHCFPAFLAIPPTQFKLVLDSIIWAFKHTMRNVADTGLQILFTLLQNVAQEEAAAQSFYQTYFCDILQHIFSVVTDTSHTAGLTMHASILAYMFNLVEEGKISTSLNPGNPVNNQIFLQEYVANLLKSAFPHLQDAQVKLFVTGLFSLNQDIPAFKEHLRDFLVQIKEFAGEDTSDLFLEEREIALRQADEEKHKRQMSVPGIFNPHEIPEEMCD
Compound,IC50 (MM1.S cells),EC50 (CRM1)
"C=C(Cn1cnc(-c2cc(C(F)(F)F)cc(C(F)(F)F)c2)n1)C(=O)OC(C)C [Compound 1, isopropyl 2-((3-(3,5-bis(trifluoromethyl)phenyl)-1H-1,2,4-triazol-1-yl)methyl)acrylate]",0.1 µM,0.9 µM
"C=C(Cn1cnc(-c2cc(OC)cc(C(F)(F)F)c2)n1)C(=O)OC(C)C [Compound 3, isopropyl 2-((3-(3-methoxy-5-(trifluoromethyl)phenyl)-1H-1,2,4-triazol-1-yl)methyl)acrylate]",0.05 µM,1.8 µM
"C=C(Cn1cnc(-c2cc(OC)cc(C(F)(F)F)c2)n1)C(=O)OCC [Compound 4, ethyl 2-((3-(3-methoxy-5-(trifluoromethyl)phenyl)-1H-1,2,4-triazol-1-yl)methyl)acrylate]",–,3.8 µM
"C=C(Cn1cnc(-c2cc(C(F)(F)F)cc(C(F)(F)F)c2)n1)C(=O)NNc1cnccn1 [Compound 7, 2-((3-(3,5-bis(trifluoromethyl)phenyl)-1H-1,2,4-triazol-1-yl)methyl)-N′-(pyrazin-2-yl)acrylohydrazide]",0.01 µM,–
"C=C(Cn1nnc(-c2ccccc2)n1)c1nnco1 [Compound 9, 2-(3-(5-phenyl-2H-tetrazol-2-yl)prop-1-en-2-yl)-1,3,4-oxadiazole]",–,15 µM
"C=C(Cn1nnc(-c2cc(C(F)(F)F)cc(C(F)(F)F)c2)n1)C(=O)OC(C)C [Compound 11, isopropyl 2-((5-(3,5-bis(trifluoromethyl)phenyl)-2H-tetrazol-2-yl)methyl)acrylate]",–,15 µM

# The next lines start with the values.
IC50 (MM1.S cells),EC50 (CRM1),Compound
0.09 µM,1.8 µM,"C=C(Cn1cnc(-c2cc(C(F)(F)F)cc(C(F)(F)F)c2)n1)C(=O)N1CC(F)(F)C1 [Compound 5, 2-((3-(3,5-bis(trifluoromethyl)phenyl)-1H-1,2,4-triazol-1-yl)methyl)-1-(3,3-difluoroazetidin-1-yl)prop-2-en-1-one]"
0.07 µM,0.9 µM,"C=C(Cn1cnc(-c2cc(C(F)(F)F)cc(C(F)(F)F)c2)n1)C(=O)NNc1ccccn1 [Compound 6, 2-((3-(3,5-bis(trifluoromethyl)phenyl)-1H-1,2,4-triazol-1-yl)methyl)-N′-(pyridin-2-yl)acrylohydrazide]"
0.03 µM,0.23 µM,"C=C(Cn1cnc(-c2cc(C(F)(F)F)cc(C(F)(F)F)c2)n1)c1nnco1 [Compound 8, 2-(3-(3-(3,5-bis(trifluoromethyl)phenyl)-1H-1,2,4-triazol-1-yl)prop-1-en-2-yl)-1,3,4-oxadiazole]"
–,> 30 µM,"C=C(Cn1nnc(-c2ccccc2)n1)C(=O)N1CCCCC1 [Compound 10, 2-((5-phenyl-2H-tetrazol-2-yl)methyl)-1-(piperidin-1-yl)prop-2-en-1-one]"
